Test results from paper PMC4747407 (Oncotarget, 2015).
“Also recorded” adds a separate entry of the source.

Assays:
[1] = set-up: method as in PMID 22246237; conditions: cited from earlier work
[2] = test system: PARP activity in NCI-H460 tumor tissue; assay: Pharmacodynamic PARP inhibition (PAR ELISA) in NCI-H460 tumors; type: in vivo, mouse
Protocol: Control group (10 mice) were treated with vehicle (0.5% methyl cellulose in water). Mice were euthanized and tumors were harvested at 1, 6, 12, 24 and 36 hours post treatment (5 mice per treatment per time point). Individual tumors were removed and flash frozen in liquid nitrogen for PAR analysis. PARP inhibition was also evaluated in tumors from NCI-H460 human lung cancer subcutaneous xenografts. Control group animals (24 mice) were treated with vehicle (0.5% methyl cellulose). […] Mice were euthanized and tumors were harvested at 0.25, 1, 6, 12, 24 and 36 hours post-treatment. PAR levels were determined by ELISA using the procedure provided by Trevigen and comparing to a PAR standard curve. Protein concentration of tumor lysates was determined using the BCA assay (Thermo Scientific). Results were converted from pg PAR/assay well to ng PAR/mg protein. Data was pooled from multiple experiments. The percent of control for each time point was calculated by using an average of all control replicates from that experiment.

[3] = test system: DNA repair mutant DT40 cell lines; assay: Proliferation assay in panel of isogenic DNA repair mutant DT40 cell lines (XTT); type: cell-based, avian
Wnt1 model tumors = assay: Gene expression of Wnt-related genes in Wnt1 model tumors (mouse TLDA); type: in vivo; conditions: 7 days of drug treatment
Protocol: (§1) Gene expression profiling was performed using a custom designed TaqMan® low density array (TLDA). Total RNA was isolated from cell lines using RNeasy Mini Kit (Qiagen) and from xenograft tumor FFPE tissue using RecoverAll Total Nucleic Acid Isolation (Ambion). Human and mouse, real-time qPCR TLDAs (384-well micro fluidic card) were designed with genes selected based on their involvement in Wnt signalling (see supplementary Tables 2 and 3 for lists of genes on TLDAs). cDNA was generated from total RNA using High Capacity cDNA Reverse Transcription kit (Life Technologies) or SuperScript® VILO™ Master Mix (Life Technologies). 100 ng cDNA was combined with TaqMan® Gene Expression Master Mix (Life Technologies) for the cell lines and TaqMan® Advanced FAST Master Mix (Life Technologies) for the xenograft tissue for each port (in duplicate). TLDAs were run based on recommended cycling times for each master mix. Ct values were calculated and imported into GeneData Analyst for further analysis. To calculate the ΔCts, gene expression was normalized to several housekeeping genes. Relative fold change was calculated by comparison to the DMSO or vehicle-treated controls for each sample. A student's t-test was used to calculate P-values and hierarchical clustering used Manhattan distance and complete linkage plotting of selected significant genes to generate heat maps.

[4] = test system: MX-1 human breast cancer xenografts; type: in vivo
Protocol: All studies were performed according to IACUC approved protocols. The general health of mice was monitored daily. Tumor volume was determined by caliper measurements (mm), using the formula (l x w^2)/2 = mm^3, where l and w refer to the larger and smaller perpendicular dimensions collected at each measurement. Tumor dimensions were recorded twice per week starting when tumors reached an approximate size of 100 to 150 mm^3. Body weights were recorded twice per week and relative body weight was calculated as follows: Relative body weight = (body weight on day of measurement/body weight on first day of treatment).
Carboplatin combination in MX-1 orthotopic xenografts: female nude mice were implanted with MX-1 cells (0.5 × 10^6) in the thoracic mammary fat pad. Treatment started on day 3 when the average tumor size was approximately 50 mm^3. Carboplatin was administered as a single intravenous dose at 60 mg/kg on day 3 or 4.

DLD-1 cells = assay: Gene expression profiling of Wnt-related genes (TLDA qPCR) in DLD-1 cells; type: cell-based, human; conditions: 30 μmol/L, 72 h
Protocol: as §1

[5] = test system: MDA-MB-436 human breast cancer xenografts; assay: MDA-MB-436 subcutaneous xenograft model, single agent; type: in vivo, mouse
Protocol: All studies were performed according to IACUC approved protocols. The general health of mice was monitored daily.

O=c1[nH]nc2c3c(cccc13)N=C(CN1Cc3ccccc3C1)N2 [E7449, 8-(isoindolin-2-ylmethyl)-2,9-dihydro-3H-pyridazino[3,4,5-de]quinazolin-3-one]
brain penetration [1]: brain penetrable | oral bioavailability [1]: orally bioavailable | PARP inhibition in tumor at early time points ([2]; single dose 1 mg/kg (lowest), 0.25 and 1 hour): significant PARP inhibition | duration of complete PARP inhibition ([2]; single dose 100 mg/kg): up to 12 hours | time of rebound in PARP activity ([2]; single dose 100 mg/kg): 24 h | time of at least partial recovery of PARP activity to basal levels ([2]; single dose 1 and 3 mg/kg): ≤ 6 h | sensitivity of cell lines deficient in NHEJ repair ([3]; KU70, PKCS, LIGIV deficient DT40): Resistance | effect of loss of POLQ on sensitivity ([3]; POLQ deficient DT40): no effect | sensitivity of DT40 cells lacking PARP expression ([3]; versus wild type DT40): significantly resistant | expression of Wnt-related genes CAR2, FZD9, LEF1, VIL1 in tumors (Wnt1 model tumors): also altered in tumors from E7449-treated mice, albeit to a lesser extent | tolerability of combination with carboplatin ([4]; E7449 100 mg/kg + carboplatin 60 mg/kg): well tolerated with no signs of toxicity or significant body weight loss | antitumor activity, E7449 started 1 day post-carboplatin ([4]; E7449 100 mg/kg once daily + carboplatin 60 mg/kg i.v.): closely resembled that observed with carboplatin alone | antitumor activity, E7449 simultaneously with or prior to carboplatin ([4]; E7449 100 mg/kg once daily + carboplatin 60 mg/kg i.v. single dose): enhanced the antitumor activity of carboplatin | antitumor activity, single agent ([4]; E7449 100 mg/kg oral once daily, carboplatin single i.v. dose 60 mg/kg): inactive; also recorded: No antitumor activity | number of Wnt-related genes with significantly altered expression (DLD-1 cells): 40 genes | tolerability ([5]; 30 or 100 mg/kg once daily for 28 days): well-tolerated without any significant body weight loss or deaths | antitumor activity, single agent ([5]; 30 or 100 mg/kg oral once daily for 28 days): statistically significant antitumor activity
